14 molecules from patent US12037340B2, “Pentacyclic derivatives as Zika virus inhibitors” (Gilead Sciences, Inc., priority 2021, dated 2024) can be followed below.

In one test the test system is ZIKV. The experiment in a line: microbe, parasite or virus in culture. The class given is cell-based, Zika virus. Conditions: 48 hrs.
On to `COC(=O)N[C@H](C(=O)N1CCC[C@H]1c1nc(Cl)c(-c2ccc3c(c2)COc2cc4c(ccc5nc([C@@H]6CCCN6C(=O)[C@@H](NC(=O)OC)C(C)(C)C(F)(F)F)[nH]c54)cc2-3)[nH]1)C(C)(C)C(F)(F)F` [Compound 29, methyl ((S)-1-((S)-2-(4-chloro-5-(2-((S)-1-((S)-4,4,4-trifluoro-2-((methoxycarbonyl)amino)-3,3-dimethylbutanoyl)pyrrolidin-2-yl)-1,11-dihydroisochromeno[4′,3′:6,7]naphtho[1,2-d]imidazol-9-yl)-1H-imidazol-2-yl)pyrrolidin-l-yl)-4,4,4-trifluoro-3,3-dimethyl-1-oxobutan-2-yl)carbamate], for which the EC50 (as a rule, the concentration giving half of the maximal effect) is 11.4 nM.

`COC(=O)N[C@H](C(=O)N1[C@H](c2nc(Cl)c(-c3ccc4c(c3)COc3cc5c(ccc6nc([C@@H]7C[C@@H]8CCC[C@@H]8N7C(=O)[C@@H](NC(=O)OC)C7C[C@@H](C)O[C@H](C)C7)[nH]c65)cc3-4)[nH]2)C[C@@H]2CCC[C@@H]21)C1C[C@@H](C)O[C@H](C)C1` (stereo partly drawn) [Compound 36, methyl ((S)-2-((2S,3aS,6aS)-2-(4-chloro-5-(2-((2S,3aS,6aS)-1-((S)-2-((2R,6R)-2,6-dimethyltetrahydro-2H-pyran-4-yl)-2-((methoxycarbonyl)amino)acetyl)octahydrocyclopenta[b]pyrrol-2-yl)-1,11-dihydroisochromeno[4′,3′:6,7]naphtho[1,2-d]imidazol-9-yl)-1H-imidazol-2-yl)hexahydrocyclopenta[b]pyrrol-l(2H)-yl)-1-((2R,6R)-2,6-dimethyltetrahydro-2H-pyran-4-yl)-2-oxoethyl)carbamate] gave an EC50 of 46.9 nM.

With `COC(=O)N[C@H](C(=O)N1[C@H](c2nc(Cl)c(-c3ccc4c(c3)COc3cc5c(ccc6nc([C@@H]7C[C@@H]8CCC[C@@H]8N7C(=O)[C@@H](NC(=O)OC)C(C)C)[nH]c65)cc3-4)[nH]2)C[C@@H]2CCC[C@@H]21)C(C)C` [Compound 34, methyl ((S)-1-((2S,3aS,6aS)-2-(4-chloro-5-(2-((2S,3aS,6aS)-1-((methoxycarbonyl)-L-valyl)octahydrocyclopenta[b]pyrrol-2-yl)-1,11-dihydroisochromeno[4′,3′:6,7]naphtho[1,2-d]imidazol-9-yl)-1H-imidazol-2-yl)hexahydrocyclopenta[b]pyrrol-l(2H)-yl)-3-methyl-1-oxobutan-2-yl)carbamate], the EC50 turned out to be 30.6 nM.

For `COC(=O)N[C@H](C(=O)N1[C@H](c2nc(Cl)c(-c3ccc4c(c3)COc3cc5ccc6[nH]c([C@@H]7C[C@@H]8CCC[C@@H]8N7C(=O)[C@@H](NC(=O)OC)C(C)(C)C(F)(F)F)nc6c5cc3-4)[nH]2)C[C@@H]2CCC[C@@H]21)C(C)(C)C(F)(F)F` [Compound 37, methyl ((S)-1-((2S,3aS,6aS)-2-(4-chloro-5-(2-((2S,3aS,6aS)-1-((S)-4,4,4-trifluoro-2-((methoxycarbonyl)amino)-3,3-dimethylbutanoyl)octahydrocyclopenta[b]pyrrol-2-yl)-1,11-dihydroisochromeno[4′,3′:6,7]naphtho[1,2-d]imidazol-9-yl)-1H-imidazol-2-yl)hexahydrocyclopenta[b]pyrrol-l(2H)-yl)-4,4,4-trilluoro-3,3-dimethyl-1-oxobutan-2-yl)carbamate], the EC50 amounted to 13.3 nM. Still for that read-out and setting: the value for “methyl ((2S,3S)-1-((S)-6-(4-chloro-5-(2-((S)-5-((methoxycarbonyl)-L-isoleucyl)-5-azaspiro[2.4]heptan-6-yl)-1-dihydroisochromeno[4′,3′:6,7]naphtho[1,2-d]imidazol-9-yl)-1H-imidazol-2-yl)-5-azaspiro[2.4]heptan-5-yl)-3-methyl-1-oxopentan-2-yl)carbamate [Compound 3]” was 18.6 nM.

The same test, now with this note: Zika virus, Huh-7; 48 hrs.
As to `COC(=O)N[C@H](C(=O)N1CC2(CC2)C[C@H]1c1nc(Cl)c(-c2ccc3c(c2)COc2cc4c(ccc5nc([C@@H]6CC7(CC7)CN6C(=O)[C@@H](NC(=O)OC)C(C)C)[nH]c54)cc2-3)[nH]1)C(C)C` [Compound 2, methyl ((S)-1-((S)-6-(4-chloro-5-(2-((S)-5-((methoxycarbonyl)-L-valyl)-5-azaspiro[2.4]heptan-6-yl)-1,11-dihydroisochromeno[4′,3′:6,7]naphtho[1,2-d]imidazol-9-yl)-1H-imidazol-2-yl)-5-azaspiro[2.4]heptan-5-yl)-3-methyl-1-oxobutan-2-yl)carbamate], the midpoint of the response, the EC50, lay at 50.5 nM. Still for that read-out and setting: under `CC[C@H](C)[C@H](NC(=O)OC)C(=O)N1CCC[C@H]1c1nc(Cl)c(-c2ccc3c(c2)COc2cc4c(ccc5nc([C@@H]6CCCN6C(=O)[C@@H](NC(=O)OC)[C@@H](C)CC)[nH]c54)cc2-3)[nH]1` [Compound 27, methyl ((2S,3S)-1-((S)-2-(4-chloro-5-(2-((S)-1-((methoxycarbonyl)-L-isoleucyl)pyrrolidin-2-yl)-1,11-dihydroisochromeno[4′,3′:6,7]naphtho[1,2-d]imidazol-9-yl)-1H-imidazol-2-yl)pyrrolidin-1-yl)-3-methyl-1-oxopentan-2-yl)carbamate] stands 15.3 nM; under `CC[C@H](C)[C@H](NC(=O)OC)C(=O)N1C[C@@H](COC)C[C@H]1c1nc(C#N)c(-c2ccc3c(c2)COc2cc4c(ccc5nc([C@@H]6CC[C@H](C)N6C(=O)[C@@H](NC(=O)OC)C(C)C)[nH]c54)cc2-3)[nH]1` [Compound 16, methyl ((S)-1-((2S,5S)-2-(9-(4-cyano-2-((2S,4S)-1-((methoxycarbonyl)-L-isoleucyl)-4-(methoxymethyl)pyrrolidin-2-yl)-1H-imidazol-5-yl)-1,11-dihydroisochromeno[4′,3′:6,7]naphtho[1,2-d]imidazol-2-yl)-5-methylpyrrolidin-1-yl)-3-methyl-1-oxobutan-2-yl)carbamate], 43.4 nM; under `CC[C@@H](C)[C@H](NC(=O)OC)C(=O)N1C[C@@H](COC)C[C@H]1c1nc(Cl)c(-c2ccc3c(c2)COc2cc4c(ccc5nc([C@@H]6CC[C@H](C)N6C(=O)[C@@H](NC(=O)OC)C(C)C)[nH]c54)cc2-3)[nH]1` [Compound 19, methyl ((S)-1-((2S,5S)-2-(9-(4-chloro-2-((2S,4S)-1-((methoxycarbonyl)-L-alloisoleucyl)-4-(methoxymethyl)pyrrolidin-2-yl)-1H-imidazol-5-yl)-1,11-dihydroisochromeno[4′,3′:6,7]naphtho[1,2-d]imidazol-2-yl)-5-methylpyrrolidin-1-yl)-3-methyl-1-oxobutan-2-yl)carbamate], 16.4 nM.

For the molecule `COC(=O)N[C@H](C(=O)N1[C@@H](C)CC[C@H]1c1nc(C2CC2)c(-c2ccc3c(c2)COc2cc4c(ccc5nc([C@@H]6CC[C@H](C)N6C(=O)[C@@H](NC(=O)OC)C6C[C@@H](C)O[C@H](C)C6)[nH]c54)cc2-3)[nH]1)C1C[C@@H](C)O[C@H](C)C1` (stereo partly drawn) [Compound 11, methyl ((S)-2-((2S,5S)-2-(9-(4-cyclopropyl-2-((2S,5S)-1-((S)-2-((2R,6R)-2,6-dimethyltetrahydro-2H-pyran-4-yl)-2-((methoxycarbonyl)amino)acetyl)-5-methylpyrrolidin-2-yl)-1H-imidazol-5-yl)-1,11-dihydroisochromeno[4′,3′:6,7]naphtho[1,2-d]imidazol-2-yl)-5-methylpyrrolidin-1-yl)-1-((2R,6R)-2,6-dimethyltetrahydro-2H-pyran-4-yl)-2-oxoethyl)carbamate], the EC50 turned out to be 21.9 nM. The same measure, in the same setting: the value for `COC(=O)N[C@H](C(=O)N1[C@@H](C)CC[C@H]1c1nc(C2CC2)c(-c2ccc3c(c2)COc2cc4c(ccc5nc([C@@H]6CC[C@H](C)N6C(=O)[C@@H](NC(=O)OC)C(C)(C)CF)[nH]c54)cc2-3)[nH]1)C(C)(C)CF` [Compound 42, methyl ((S)-1-((2S,5S)-2-(4-cyclopropyl-5-(2-((2S,5S)-1-((S)-4-fluoro-2-((methoxycarbonyl)amino)-3,3-dimethylbutanoyl)-5-methylpyrrolidin-2-yl)-1,11-dihydroisochromeno[4′,3′:6,7]naphtho[1,2-d]imidazol-9-yl)-1H-imidazol-2-yl)-5-methylpyrrolidin-1-yl)-4-fluoro-3,3-dimethyl-1-oxobutan-2-yl)carbamate] was 21.4 nM; that for `COC(=O)N[C@H](C(=O)N1[C@@H](C)CC[C@H]1c1nc(C2CC2)c(-c2ccc3c(c2)COc2cc4c(ccc5nc([C@@H]6CC[C@H](C)N6C(=O)[C@@H](NC(=O)OC)C(C)C)[nH]c54)cc2-3)[nH]1)C(C)C` [Compound 38, methyl ((S)-1-((2S,5S)-2-(4-cyclopropyl-5-(2-((2S,5S)-1-((methoxycarbonyl)-L-valyl)-5-methylpyrrolidin-2-yl)-1,11-dihydroisochromeno[4′,3′:6,7]naphtho[1,2-d]imidazol-9-yl)-1H-imidazol-2-yl)-5-methylpyrrolidin-1-yl)-3-methyl-1-oxobutan-2-yl)carbamate] was 25.9 nM; that for `COC(=O)N[C@H](C(=O)N1[C@@H](C)CC[C@H]1c1nc(F)c(-c2ccc3c(c2)COc2cc4c(ccc5nc([C@@H]6CC[C@H](C)N6C(=O)[C@@H](NC(=O)OC)C(C)C)[nH]c54)cc2-3)[nH]1)C(C)C` [Compound 33, methyl ((S)-1-((2S,5S)-2-(9-(4-fluoro-2-((2S,5S)-1-((methoxycarbonyl)-L-valyl)-5-methylpyrrolidin-2-yl)-1H-imidazol-5-yl)-1,11-dihydroisochromeno[4′,3′:6,7]naphtho[1,2-d]imidazol-2-yl)-5-methylpyrrolidin-1-yl)-3-methyl-1-oxobutan-2-yl)carbamate] was 77.3 nM. On the same count and under the same terms, the value for `CC[C@@H](C)[C@H](NC(=O)OC)C(=O)N1CCC[C@H]1c1nc(Cl)c(-c2ccc3c(c2)COc2cc4c(ccc5nc([C@@H]6CCCN6C(=O)[C@@H](NC(=O)OC)[C@H](C)CC)[nH]c54)cc2-3)[nH]1` [Compound 28, methyl ((2S,3R)-1-((S)-2-(4-chloro-5-(2-((S)-1-((methoxycarbonyl)-L-alloisoleucyl)pyrrolidin-2-yl)-1,11-dihydroisochromeno[4′,3′:6,7]naphtho[1,2-d]imidazol-9-yl)-1H-imidazol-2-yl)pyrrolidin-1-yl)-3-methyl-1-oxopentan-2-yl)carbamate] was 31.5 nM.
